Ends that are not written are not given here. Peptide text beside a SMILES is read from it. * marks the point of attachment. 5FAM = O=C1OC2(c3ccc(O)cc3Oc3cc(O)ccc32)c2ccc(C(=O)*)cc21
Tests used:
[1] = Translocation into lipid vesicles (encapsulated chymotrypsin, Gly-Gln-Phe-Coumarin tag, method of Marks et al.); conditions: after 10 min, without Zn2+ ions, Figure 4B
Excerpt: Wimley, Spontaneous Membrane-Translocating Peptides by Orthogonal High-Throughput Screening, J Am Chem Soc, 133 (2011) 8995-9004].
In this method, the sequence Gly-Gln-Phe-Coumarin is C-terminally coupled to the peptides. Chymotrypsin is encapsulated in the vesicles, and this enzyme cuts the peptide between phenylalanine and coumarin. If accordingly labeled peptides penetrate into the vesicles, Chymotrypsin acts and cleaves the Phe-Coumarin bond which sets the coumarin free and causes a bathochromic shift of the fluorescence maximum of about 50 nm. which can be determined fluorimetrically.
Large unilamellar vesicles consisting of POPC / POPG 25:75 (mol:mol) were used in a concentration of 100 µM in buffer without or with 100 µM ZnSO4. […]

[2] = test system: HaCaT keratinocyte cell line; assay: Cellular uptake into HaCaT keratinocytes, flow cytometry; type: cell-based, human; conditions: for cellular translocation: 25µM carboxyfluorescein labeled peptide, 1 h, 37°C, medium without FBS, mean of six measurements; for cell uptake in comparison to SSL-25: 1 h incubation at a concentration of 25µM
Procedure: Cells (20,000 cells per well) were seeded in 24-well plates and allowed to grow in standard growth medium containing Fetal Bovine Serum (FBS) overnight to attain a confluency of 70%. On the following day, the medium was discarded and cells were washed with phosphate buffered saline. Subsequently the peptide was added at a final concentration of 25µM in culture medium without FBS. The cells were incubated with the peptides labeled with carboxyfluorescein at the N-terminus at 37°C, 5% CO2 for 1 h in the dark. Following incubation of the cells with the peptides, the cells were washed three times with phosphate buffered saline. Subsequently, the cells were trypsinized using 0.25% Trypsin-EDTA for 10 min at 37°C, 5% CO2 to allow the protease dependent degradation of adsorbed surface bound peptides and to allow the detachment of cells from the 24-well plate for further analysis.
The cellular uptake of peptides was assessed by flow cytometry. 5000 events per sample were recorded and analyzed in the flow cytometer. A mean of six measurements was plotted with standard deviations being represented by error bars. […] These peptides translocate in HaCaT cells more efficiently as compared to SSL-25 (31%), SSL-9 E5A D9K (28%) and SSL-9 E5K D9K (22%).

[3] = Cytotoxicity on HaCaT keratinocytes, MTT assay; conditions: human
Procedure: Said cells (7000 cells per well) were seeded in 96-well plate and were allowed to grow overnight in standard growth medium containing FBS. On the next day, the medium was discarded and the cells were washed thrice with phosphate buffered saline and incubated with the peptides at 10µM, 25µM, 50µM and 100µM in culture medium without FBS for 24 h at 37°C, 5% CO2. On the following day the cells were washed again with phosphate buffered saline. MTT reagent was added to cells at a final concentration of 1mg/ml in phosphate buffered saline and incubated for 2-4 h at 37°C, 5% CO2. Addition of MTT to the said cells yielded purple formazan crystals that were dissolved by addition of DMSO and the absorbance was measured at 570 nm.

human erythrocytes = human erythrocytes 0.25 % hematocrit, 37 °C, 30 minutes, 2-fold dilutions from 1024 µM stock, relative to Triton X-100 lysis
Procedure: A concentrated solution of human erythrocytes was adjusted to a hematocrit of 0.5% by repeated washing with buffer solution (172 mM Tris-HCI, pH 7.6) and this diluted solution was equilibrated to 37 °C in a water bath.
The peptides were prepared as a 1024 µM stock solutions in buffer, added to the erythrocytes in sequential 2-fold dilutions and incubated at 37 °C for 30 minutes with occasional shaking.
The cells were centrifuged and the released hemoglobin in the supernatant was quantified using spectrophotometry. The obtained values were set in reference to the value obtained by complete lysis of all cells upon addition of Triton™ X-100.

Compound	extent of translocation [1]	cellular translocation [2]	cell uptake in comparison to SSL-25 [2]	viability at 24 h, 100 µM [3]	viability at 24 h, 100 µM ([3]; HaCaT keratinocytes)	hemolysis (human erythrocytes)
CC(C)C[C@H](NC(=O)CNC(=O)[C@H](CCCCN)NC(=O)[C@H](CCC(=O)O)NC(=O)[C@H](CC(C)C)NC(=O)[C@H](CC(C)C)NC(=O)[C@H](CO)NC(=O)[C@H](CO)NC(=O)c1ccc2c(c1)C(=O)OC21c2ccc(O)cc2Oc2cc(O)ccc21)C(=O)N[C@@H](CC(=O)O)C(=O)O [SSL-9, SSLLEKGLD] (5FAM-SSLLEKGLD-OH; N-terminus and C-terminus assumed)	reduced translocation	50%	higher cell uptake in comparison to SSL-25	70%	–	–
CC(C)C[C@H](NC(=O)CNC(=O)[C@H](CCCCN)NC(=O)[C@H](C)NC(=O)[C@H](CC(C)C)NC(=O)[C@H](CC(C)C)NC(=O)[C@H](CO)NC(=O)[C@H](CO)NC(=O)c1ccc2c(c1)C(=O)OC21c2ccc(O)cc2Oc2cc(O)ccc21)C(=O)N[C@@H](CCCCN)C(=O)O [SSL-9 E5A D9K] (5FAM-SSLLAKGLK-OH; N-terminus and C-terminus assumed)	–	28%	reduced but comparable uptake	–	70%	–
CC(C)C[C@H](NC(=O)CNC(=O)[C@H](CCCCN)NC(=O)[C@H](CCCCN)NC(=O)[C@H](CC(C)C)NC(=O)[C@H](CC(C)C)NC(=O)[C@H](CO)NC(=O)[C@H](CO)NC(=O)c1ccc2c(c1)C(=O)OC21c2ccc(O)cc2Oc2cc(O)ccc21)C(=O)N[C@@H](C)C(=O)O [SSL-9 E5K D9A] (5FAM-SSLLKKGLA-OH; N-terminus and C-terminus assumed)	–	81.7%	higher cell uptake in comparison to SSL-25	70%	–	–
CC(C)C[C@H](NC(=O)CNC(=O)[C@H](CCCCN)NC(=O)[C@H](CCC(=O)O)NC(=O)[C@H](CC(C)C)NC(=O)[C@H](CC(C)C)NC(=O)[C@H](CO)NC(=O)[C@H](CO)NC(=O)c1ccc2c(c1)C(=O)OC21c2ccc(O)cc2Oc2cc(O)ccc21)C(=O)N[C@@H](CC(=O)O)C(=O)NCC(=O)N[C@@H](C)C(=O)N[C@@H](CCCCN)C(=O)N[C@@H](CCCCN)C(=O)O [SSL-13, SSLLEKGLDG AKK] (5FAM-SSLLEKGLDGAKK-OH)	able to penetrate lipid membranes very efficiently	48%	higher cell uptake in comparison to SSL-25	70%	–	–
CC(C)C[C@H](NC(=O)CNC(=O)[C@H](CCCCN)NC(=O)[C@H](CCCCN)NC(=O)[C@H](CC(C)C)NC(=O)[C@H](CC(C)C)NC(=O)[C@H](CO)NC(=O)[C@H](CO)NC(=O)c1ccc2c(c1)C(=O)OC21c2ccc(O)cc2Oc2cc(O)ccc21)C(=O)N[C@@H](CCCCN)C(=O)O [SSL-9 E5K D9K] (5FAM-SSLLKKGLK-OH; N-terminus and C-terminus assumed)	–	22%	reduced but comparable uptake	70%	–	–
CC(C)C[C@H](NC(=O)CNC(=O)[C@H](CCCCN)NC(=O)[C@H](CCC(=O)O)NC(=O)[C@H](CC(C)C)NC(=O)[C@H](CC(C)C)NC(=O)[C@H](CO)NC(=O)[C@H](CO)NC(=O)c1ccc2c(c1)C(=O)OC21c2ccc(O)cc2Oc2cc(O)ccc21)C(=O)N[C@@H](C)C(=O)NCC(=O)N[C@@H](C)C(=O)N[C@@H](CCCCN)C(=O)N[C@@H](CCCCN)C(=O)O [SSL-13 D9A, SSLLEKGLAG AKK] (5FAM-SSLLEKGLAGAKK-OH; N-terminus and C-terminus assumed)	–	81.5%	higher cell uptake in comparison to SSL-25	–	70%	–
SSLLEKGLDGAKKAVGGLGKLGKDAVEDLESVGKGAVHDVKDVLDSVL [DCD-1L, SSLLEKGLDGAKKAVGGLGKLGKDAVEDLESVGKGAVHDVKDVLDSVL]	–	–	–	–	–	no hemolysis
CC(C)C[C@H](NC(=O)CNC(=O)[C@H](CCCCN)NC(=O)[C@H](CCC(=O)O)NC(=O)[C@H](CC(C)C)NC(=O)[C@H](CC(C)C)NC(=O)[C@H](CO)NC(=O)[C@H](CO)NC(=O)c1ccc2c(c1)C(=O)OC21c2ccc(O)cc2Oc2cc(O)ccc21)C(=O)N[C@@H](CC(=O)O)C(=O)NCC(=O)N[C@@H](C)C(=O)O [SSL-11, SSLLEKGLDG A] (5FAM-SSLLEKGLDGA-OH; N-terminus and C-terminus assumed)	reduced translocation	70%	higher cell uptake in comparison to SSL-25	–	70%	–

Reference: patent publication EP3360891B1, “CELL PENETRATING PEPTIDES OF HUMAN ORIGIN” (Karlsruher Institut für Technologie, priority 2017, dated 2018)
